Assay type in all cases: cell-based
One series has as its system human red blood cells. Nature of the series: Haemolytic assay. The following applies: human red blood cells, one hour at 37° C.; for Haemolysis (%) 25 μM: peptide 25 μM; for Haemolysis (%) 200 μM: peptide 200 μM. As to the method:
Selected synthesised peptide analogues were also screened for haemolytic activity using human red blood cells as described previously (Sperstad, S. V., et al. (2009) Dev. Comp. Immunol. 33, 583-591). The assay was performed on 96-well U-shaped microtiter plates (Nagle Nunc) with 50 μl peptide sample, 40 μl phosphate-buffered saline (PBS) and 10 μl red blood cells. After one hour of incubation at 37° C. in a shaker, the plate was centrifuged at 200 g for 5 min and the supernatants (60 μl) were carefully transferred to a new flat-bottomed polycarbonate microtiter plate (Nagle Nunc) and the release of haemoglobin (absorbance at 550 nm) was measured on a Synergy H1 multimode reader (BioTek, Vt., USA). Cell suspension added 0.05% Triton X-100 (Sigma-Aldrich, Mo., USA) in PBS served as positive (100% haemolysis) control and cell suspension added PBS served as negative (0% haemolysis, blank) control. The percent haemolysis was calculated using the formula [(Asample-Abaseline)/(Atriton-Abaseline)]×100. The cytotoxic peptide melittin (Sigma-Aldrich) was used as a positive control peptide and for comparison. The experiment was performed in triplicates with peptide concentrations ranging from 200 μM to 1.56 μM in two-fold dilutions.

Series [1] deals with Staphylococcus aureus (Sa, ATCC 9144). The method, then:
(§1) The peptides were screened for antibacterial activity against two strains of Gram-positive and two strains of Gram-negative bacteria; Corynebacterium glutamicum (Cg, ATCC 13032), Staphylococcus aureus (Sa, ATCC 9144), Pseudomonas aeruginosa (Pa, ATCC 27853) and Escherichia coli (Ec, ATCC 25922).
(§2) Cultures stored at −80° C. in glycerol were transferred to Müller-Hinton plates (MH, Difco, Lawrence, Kans., USA) and incubated for 24 h at 35° C. A few colonies of each bacterial strain were transferred to 5 ml liquid MH medium and left shaking at room temperature overnight at 600 rpm. Cultures of actively growing bacteria (20 μl) were inoculated in 5 ml MH medium and left shaking for 2 h at room temperature. The antibacterial assays were performed as previously described by Sperstad, S. V., et al. ((2009) Mol. Immunol. 46, 2604-2612) with the following exception: bacterial cultures were diluted with medium to 2.5-3×10^4 bacteria/ml concentrations. An aliquot of 50 μl (1250-1500 bacterial cells) was added to each well in 96-well Nunclon™ microtiter plates (Nagle Nunc Int., Denmark) preloaded with peptide solution (50 μl).
(§3) The microtiter plates were incubated for 24 h at 35° C. with optical density recorded every hour using an Envision 2103 multilabel reader, controlled by a Wallac Envision manager (PerkinElmer, Conn., USA). Minimum inhibitory concentration (MIC) was defined as a sample showing complete inhibition (as measured by optical density at 595 nm) compared to the negative (growth) controls, consisting of bacteria and water. Oxytetracycline (20 μM) served as a positive (inhibition) control.
(§4) The synthetic peptides were tested for antibacterial activity in concentrations ranging from 200 to 0.1 μM in two-fold dilutions. All tests were performed in triplicates.

For series [2], the system named is Corynebacterium glutamicum (Cg, ATCC 13032). As to the method:
as §1, §2, §3, §4

A further series has as its system Rhodotorula sp. The following applies: 24 h. As to the method: (§5) The synthetic peptides were also screened for antifungal activity against Candida albicans (ATCC 10231), Aureobasidium pullulans and Rhodotorula sp. (the last two were obtained from Professor Arne Tronsmo, The Norwegian University of Life Sciences, As, Norway). The antifungal assay was performed as previously described (Sperstad, S. V., et al. (2009) Dev. Comp. Immunol. 33, 583-591). Briefly, fungal spores were dissolved in potato dextrose broth (Difco, Lawrence, Kans., USA) to a concentration of 4×10^5 spores/ml. The spores (50 μl) were inoculated on 96-well Nunclon™ microtiter plates containing the synthetic peptides (50 μl) dissolved in MQ-H2O. […] The negative (growth) control consisted of medium and fungal solution. The peptides were tested for activity in concentrations ranging from 100 to 0.1 μM in two-fold serial dilutions. All tests were performed in triplicates.

The test system of a further series is Aureobasidium pullulans. The settings on record: 24 h. The method, then:
as §5

Series [3] relates to Candida albicans (ATCC 10231). As to the method:
as §5

Series [4] has as its system Escherichia coli (Ec, ATCC 25922). As to the method: as §1, §2, §3, §4
The subject of series [5] is Pseudomonas aeruginosa (Pa, ATCC 27853). The method, then:
as §1, §2, §3, §4

Where [6] appears, read: 24 h at 35° C., complete inhibition by OD 595 nm.

Results on eleven substances are retold here after patent US20200071357A1, “ANTIMICROBIAL PEPTIDES” (UNIVERSITETET I TROMSØ - NORGES ARKTISKE UNIVERSITET, priority 2016, published 2020).

Like-named read-outs stand apart in the source and are kept apart here. Where no end group is shown, it is not given here.

Consider “GWWRRTVAAVRK-NH2 [Peptide K9A, GWWRRTVAAVRK-NH2]”, for which, in the series with human red blood cells, the “Haemolysis (%) 25 μM” value was determined as 0.0% and the “Haemolysis (%) 200 μM” value amounted to 5.1%. The “MIC (μM) Sa” value in series [1] (ATCC 9144, 24 h) was 100 µM. Besides, the “MIC (μM) Cg” value in series [2] (ATCC 13032, 24 h) was found to be 1.6 µM. Moreover, the “MIC (μM) Rhodotorula sp.” value with Rhodotorula sp. was 12.5 µM. For the same substance, in the series on Aureobasidium pullulans, the “MIC (μM) A. pullulans” value was 25 µM. Also, the “MIC (μM) C. albicans” value in series [3] (ATCC 10231, 24 h) is 25 µM.

On to “AWWRRTVAKVRK-NH2 [Peptide G1A, AWWRRTVAKVRK-NH2]”, for which, in the series on human red blood cells, the “Haemolysis (%) 25 μM” value was 0.0% and the “Haemolysis (%) 200 μM” value was 1.6%. In addition, the “MIC (μM) Ec” value in series [4] (ATCC 25922, 24 h) is 12.5 µM. The “MIC (μM) Pa” value in series [5] (ATCC 27853, 24 h) amounted to 6.3 µM. In addition, the “MIC (μM) Cg” value in series [2] (ATCC 13032, 24 h) was determined as 0.8 µM. Further, the “MIC (μM) Rhodotorula sp.” value with Rhodotorula sp. was determined as 12.5 µM. Moreover, the “MIC (μM) A. pullulans” value against Aureobasidium pullulans was 50 µM. Besides, the “MIC (μM) C. albicans” value in series [3] (ATCC 10231, 24 h) was determined as 25 µM.

Regarding “GWARRTVAKVRK-NH2 [Peptide W3A, GWARRTVAKVRK-NH2]”, in the series on human red blood cells, the “Haemolysis (%) 25 μM” value was determined as 0.0% and the “Haemolysis (%) 200 μM” value stood at 0.0%. Besides, in series [2] (ATCC 13032, 24 h), the “MIC (μM) Cg” value worked out at 0.8 µM. Further, in the series with Rhodotorula sp., the “MIC (μM) Rhodotorula sp.” value was determined as 25 µM. Moreover, the “MIC (μM) A. pullulans” value with Aureobasidium pullulans is 50 µM. The “MIC (μM) C. albicans” value in series [3] (ATCC 10231, 24 h) turned out to be 50 µM.

As for H-GWWRRTVRK-NH2 [HC(1-9)R8, GWWRRTVRK], in series [1] (ATCC 9144, 24 h), the “MIC (μM) Sa” value is 100 µM. In series [4] (ATCC 25922, 24 h), the “MIC (μM) Ec” value is 50 µM. Moreover, the “MIC (μM) Pa” value in series [5] (ATCC 27853, 24 h) was 25 µM. In addition, in series [2] (ATCC 13032, 24 h), the “MIC (μM) Cg” value was 3.1 µM.

“GAWRRTVAKVRK-NH2 [Peptide W2A, GAWRRTVAKVRK-NH2]”: in the series on human red blood cells, the “Haemolysis (%) 25 μM” value stood at 0.0% and the “Haemolysis (%) 200 μM” value came to 0.0%. The “MIC (μM) Sa” value in series [1] (ATCC 9144, 24 h) is 100 µM. Also, the “MIC (μM) Cg” value in series [2] (ATCC 13032, 24 h) was found to be 3.1 µM. In addition, the “MIC (μM) Rhodotorula sp.” value in the series with Rhodotorula sp. was 25 µM. Further, in the series with Aureobasidium pullulans, the “MIC (μM) A. pullulans” value is 50 µM. Moreover, the “MIC (μM) C. albicans” value in series [3] (ATCC 10231, 24 h) amounted to 50 µM.

On to “GWWRRTVAKVRNAGRK-NH2 [HC(1-16)A8, GWWRRTVAKVRNAGRK]”, for which, in the series with human red blood cells, the “Haemolysis (%) 25 μM” value worked out at 0.0% and the “Haemolysis (%) 200 μM” value was 5.0%. Also, the “MIC (μM) Sa” value in series [1] (ATCC 9144, 24 h) was 12.5 µM. The “MIC (μM) Ec” value in series [4] (ATCC 25922, 24 h) was found to be 3.1 µM. Also, the “MIC (μM) Pa” value in series [5] (ATCC 27853, 24 h) worked out at 3.1 µM. Also, the “MIC (μM) Cg” value in series [2] (ATCC 13032, 24 h) worked out at 0.8 µM.

“GWWRRTVAKVRA-NH2 [Peptide K12A, GWWRRTVAKVRA-NH2]”: in the series on human red blood cells, the “Haemolysis (%) 25 μM” value was determined as 0.0% and the “Haemolysis (%) 200 μM” value amounted to 0.0%. Further, the “MIC (μM) Sa” value in series [1] (ATCC 9144, 24 h) stood at 50 µM. Further, the “MIC (μM) Cg” value in series [2] (ATCC 13032, 24 h) is 0.8 µM. Also, in the series on Rhodotorula sp., the “MIC (μM) Rhodotorula sp.” value is 12.5 µM. Moreover, the “MIC (μM) A. pullulans” value against Aureobasidium pullulans came out at 50 µM. Moreover, the “MIC (μM) C. albicans” value in series [3] (ATCC 10231, 24 h) amounted to 25 µM.

“WWRRTVAKVRNAGRK-NH2 [HC(2-16)A7, WWRRTVAKVRNAGRK]”: the “MIC (μM) Sa” value in series [1] (ATCC 9144, 24 h) is 12.5 µM. For the same substance, the “MIC (μM) Ec” value in series [4] (ATCC 25922, 24 h) worked out at 6.3 µM. Besides, the “MIC (μM) Pa” value in series [5] (ATCC 27853, 24 h) was 25 µM. Moreover, the “MIC (μM) Cg” value in series [2] (ATCC 13032, 24 h) was determined as 0.4 µM.

With “GWWRRAVAKVRK-NH2 [Peptide T6A, GWWRRAVAKVRK-NH2]”, in the series on human red blood cells, the “Haemolysis (%) 25 μM” value is given as 0.9% and the “Haemolysis (%) 200 μM” value is 4.1%. In addition, the “MIC (μM) Cg” value in series [2] (ATCC 13032, 24 h) turned out to be 1.6 µM. The “MIC (μM) Rhodotorula sp.” value against Rhodotorula sp. was found to be 12.5 µM. In addition, in the series on Aureobasidium pullulans, the “MIC (μM) A. pullulans” value is 25 µM. Besides, in series [3] (ATCC 10231, 24 h), the “MIC (μM) C. albicans” value amounted to 25 µM.

Consider “GWWRRWVAKVRK-NH2 [HC(1-12)W6A8K12, GWWRRWVAKVRK-NH2]”, for which the “MIC (μM) Sa” value in series [1] (setting [6]) was determined as 3.1 µM. Besides, in series [4] (setting [6]), the “MIC (μM) Ec” value was 1.6 µM. For the same substance, the “MIC (μM) Pa” value in series [5] (setting [6]) was found to be 1.6 µM. Besides, the “MIC (μM) Cg” value in series [2] (setting [6]) was 0.8 µM. Besides, the “MIC (μM) A. pullulans” value with Aureobasidium pullulans came to 50 µM. Also, in series [3] (no visible growth after 24 h at room temperature), the “MIC (μM) C. albicans” value came to 12.5 µM.

With “H-GWWRRTVAKVRN-NH2 [HC(1-12)A8, GWWRRTVAKVRN]”, the “MIC (μM) Sa” value in series [1] (ATCC 9144, 24 h) worked out at 50 µM. The “MIC (μM) Ec” value in series [4] (ATCC 25922, 24 h) came out at 6.3 µM. Moreover, in series [5] (ATCC 27853, 24 h), the “MIC (μM) Pa” value came to 6.3 µM. Further, the “MIC (μM) Cg” value in series [2] (ATCC 13032, 24 h) worked out at 1.6 µM.
